Reference: patent US20100168192A1, “BENZISOXAZOLE DERIVATIVES AS POTASSIUM CHANNEL MODULATORS FOR THE TREATMENT OF E.G. RESPIRATORY DISEASES, EPILEPSY AND CONVULSIONS” (NeuroSearch A/S, priority 2007, published 2010)

How the values were obtained:
BK channels = target: T1, BK channels (Homo sapiens, UniProt Q12791); experiment: BK channel opening activity, two-electrode voltage clamp in Xenopus laevis oocytes; type: cell-based
T1 construct: expressed in transfected cells; host or cells: Xenopus laevis oocytes
Procedure: In this example the BK channel opening activity of Compound 1 (i.e. N-(2-Benzo[d]isoxazol-3-yl-acetyl)-methanesulfonamide) is determined using BK channels heterologously expressed in Xenopus laevis oocytes.
The electrical current through the BK channel was measured using conventional two-electrode voltage clamp. BK currents were activated by repeating ramp protocols. In brief, the membrane potential was continuously changed from −120 mV to +120 mV within a 2 s period. The threshold for BK activation is approximately +30 mV under control conditions. Compounds were applied for 100 s during which the ramp protocol was repeated 10 times with 10 s intervals. In between the ramp protocols the membrane potential was clamped at −80 mV. The first three compound applications were control blanks where the current level is allowed to stabilize.
In order to evaluate the ability of the compounds to shift the BK activation curve towards lower membrane potentials, the BK current was transformed into conductance by using Ohm's law g=I/(Ememb−Erev), where g is the conductance, I is the current, Ememb is the membrane potential and Erev is the reversal potential. The extracellular solution for these experiments contained 2.5 mM K+ and the intracellular K+ concentration of an oocyte was estimated to be 100 mM. Under those conditions, Nernst equation predicts a reversal potential of Erev=−93.2 mV. The control conductance level at a membrane potential of +100 mV was calculated, and the compound effect was evaluated as the potential difference, ΔV, to the membrane potential at which the same conductance level was obtained in the presence of compound.
The concentration response curve for this potential difference was fitted to the sigmoidal logistic equation: ΔV=ΔVmax/(1+(EC50/[compound])^n), where ΔVmax represents the maximal left shift of the BK activation curve, EC50 is the concentration causing a half maximal response, and n is the slope coefficient.

T1 sequence (Q12791 whole entry): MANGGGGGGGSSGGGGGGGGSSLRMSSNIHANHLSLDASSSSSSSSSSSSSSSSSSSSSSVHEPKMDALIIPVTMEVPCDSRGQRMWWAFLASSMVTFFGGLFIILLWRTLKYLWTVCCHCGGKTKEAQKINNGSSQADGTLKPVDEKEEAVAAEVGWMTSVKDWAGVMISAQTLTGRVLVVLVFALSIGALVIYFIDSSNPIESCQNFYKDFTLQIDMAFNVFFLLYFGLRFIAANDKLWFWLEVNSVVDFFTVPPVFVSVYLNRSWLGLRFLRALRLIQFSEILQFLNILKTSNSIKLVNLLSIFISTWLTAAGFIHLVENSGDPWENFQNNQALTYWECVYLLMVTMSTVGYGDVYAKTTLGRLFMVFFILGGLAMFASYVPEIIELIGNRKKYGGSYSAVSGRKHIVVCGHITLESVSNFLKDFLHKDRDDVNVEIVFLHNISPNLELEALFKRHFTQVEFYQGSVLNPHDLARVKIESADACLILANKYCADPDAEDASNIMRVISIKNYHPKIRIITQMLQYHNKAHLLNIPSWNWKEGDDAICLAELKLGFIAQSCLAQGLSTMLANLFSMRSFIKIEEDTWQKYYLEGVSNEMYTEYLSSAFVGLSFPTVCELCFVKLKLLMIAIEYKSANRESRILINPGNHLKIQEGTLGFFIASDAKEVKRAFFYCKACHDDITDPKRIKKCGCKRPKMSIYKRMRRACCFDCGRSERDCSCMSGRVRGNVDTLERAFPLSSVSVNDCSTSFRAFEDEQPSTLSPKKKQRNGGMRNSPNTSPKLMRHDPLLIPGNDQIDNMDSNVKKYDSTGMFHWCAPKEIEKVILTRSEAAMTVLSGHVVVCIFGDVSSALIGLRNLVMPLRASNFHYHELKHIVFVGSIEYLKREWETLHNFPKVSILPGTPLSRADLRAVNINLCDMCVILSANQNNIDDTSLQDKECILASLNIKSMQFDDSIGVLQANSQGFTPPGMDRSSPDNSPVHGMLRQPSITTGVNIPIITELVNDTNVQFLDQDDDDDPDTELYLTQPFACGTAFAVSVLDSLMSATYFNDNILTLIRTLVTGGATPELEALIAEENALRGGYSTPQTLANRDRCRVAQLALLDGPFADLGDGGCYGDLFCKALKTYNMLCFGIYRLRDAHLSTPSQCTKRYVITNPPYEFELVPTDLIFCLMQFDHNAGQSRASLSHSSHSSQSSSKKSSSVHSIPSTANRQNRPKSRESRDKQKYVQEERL

Q: Which “ΔVmax, maximal left-shift of the BK activation curve” value (BK channels; BK channels heterologously expressed in Xenopus laevis oocytes, 0.01-31.6 μM, fitted to sigmoidal logistic equation) does the source give for `CS(=O)(=O)NC(=O)Cc1noc2ccccc12` [Compound 1, N-(2-Benzo[d]isoxazol-3-yl-acetyl)-methanesulfonamide] here?
A: −15 mV

Q: And the EC50 (BK channels; BK channels heterologously expressed in Xenopus laevis oocytes, 0.01-31.6 μM, ΔV at control conductance level of +100 mV, fitted to sigmoidal logistic equation, read-out: EC50 for the left-shift of the BKCa-activation curve)?
A: 0.3 µM

Q: And the “BK current level at depolarizing potentials” value (BK channels; increasing concentrations (0.01-31.6 μM), ramp protocol −120 mV to +120 mV, Xenopus laevis oocytes)?
A: marked increase in the current level

Q: And the melting point?
A: 167 to 171 °C
